Results taken from patent US8993585B2, “Cyclic amine substituted pyrimidinediamines as PKC inhibitors” (Rigel Pharmaceuticals, Inc., priority 2007, dated 2015).

What was measured:
PKC theta = target: T1, PKC theta (Homo sapiens, UniProt Q04759); assay: PKC assay, fluorescence polarization (Example 2), PKC theta; type: biochemical; settings: 5 μM ATP
T1 construct: purchased Upstate Biotechnologies, Temecula, CA 14-444
Experimental: (§1) The inhibition of PKC activity was measured by monitoring the production of phosphorylated peptide by fluorescence polarization at different concentrations of the inhibitor. Reactions were carried out in 96-well plate format with a total volume of 20 μL containing 20 mM HEPES, pH 7.4, 5 mM MgCl2, 0.2 mM CaCl2, 1 mM DTT, 0.02% Brij-35, 0.1 mg/mL phosphatidylserine, 0.02 mg/mL dioleoyl-sn-glycerol and 5 μM each of ATP and the peptide substrate. Compounds were first diluted serially in DMSO and then transferred to a solution containing the above concentrations of HEPES, MgCl2, CaCl2, DTT, and Brij-35 to yield 5× compound solutions in 2% DMSO, which was then added to the reaction solution. Reactions were initiated by the addition of PKC at a typical concentration as described in Table VI, and then allowed to incubate at room temperature for 20 min. At the end of this time, a combination of quench (EDTA) and detection (peptide tracer and antibody) reagents was added using the protocol of Invitrogen P2748.

PKC epsilon = target: T2, PKC epsilon (Homo sapiens, UniProt Q02156); assay: PKC assay, fluorescence polarization (Example 2), PKC epsilon; type: biochemical; settings: 5 μM ATP
T2 construct: purchased Upstate Biotechnologies, Temecula, CA 14-518
T2 sequence (Q02156 1-737): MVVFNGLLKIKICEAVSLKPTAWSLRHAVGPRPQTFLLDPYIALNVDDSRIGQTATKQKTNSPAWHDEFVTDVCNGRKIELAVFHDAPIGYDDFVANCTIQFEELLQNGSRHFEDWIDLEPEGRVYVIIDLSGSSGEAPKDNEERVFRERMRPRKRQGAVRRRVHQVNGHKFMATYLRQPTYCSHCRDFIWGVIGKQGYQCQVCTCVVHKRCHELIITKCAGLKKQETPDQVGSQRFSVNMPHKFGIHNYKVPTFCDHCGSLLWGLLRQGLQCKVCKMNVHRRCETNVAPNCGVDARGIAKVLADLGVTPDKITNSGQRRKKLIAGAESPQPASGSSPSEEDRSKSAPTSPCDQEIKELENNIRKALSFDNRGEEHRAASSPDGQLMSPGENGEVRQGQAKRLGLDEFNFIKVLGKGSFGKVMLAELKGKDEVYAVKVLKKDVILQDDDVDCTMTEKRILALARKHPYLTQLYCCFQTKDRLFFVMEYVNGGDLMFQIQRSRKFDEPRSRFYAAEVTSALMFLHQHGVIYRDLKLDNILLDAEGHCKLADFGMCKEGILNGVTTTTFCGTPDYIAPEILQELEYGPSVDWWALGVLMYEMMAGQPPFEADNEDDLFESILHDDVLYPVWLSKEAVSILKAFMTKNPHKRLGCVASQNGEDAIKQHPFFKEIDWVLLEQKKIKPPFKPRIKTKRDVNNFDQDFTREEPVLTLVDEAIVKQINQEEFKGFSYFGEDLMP
Experimental: as §1

Human primary T cells = assay: IL-2 ELISA, Human Primary T Cell, Anti-CD3+CD28+ (Example 3); type: cell-based; settings: anti-CD3+CD28 stimulation
How it was run: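 Human primary T cells, 100,000 per well, were pre-incubated with compound in Yssel's medium for 1 h at 37 °C. The counter-assay used 0.5 ng/ml PMA with 0.1 uM ionomycin final.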

T1 sequence (Q04759 whole entry): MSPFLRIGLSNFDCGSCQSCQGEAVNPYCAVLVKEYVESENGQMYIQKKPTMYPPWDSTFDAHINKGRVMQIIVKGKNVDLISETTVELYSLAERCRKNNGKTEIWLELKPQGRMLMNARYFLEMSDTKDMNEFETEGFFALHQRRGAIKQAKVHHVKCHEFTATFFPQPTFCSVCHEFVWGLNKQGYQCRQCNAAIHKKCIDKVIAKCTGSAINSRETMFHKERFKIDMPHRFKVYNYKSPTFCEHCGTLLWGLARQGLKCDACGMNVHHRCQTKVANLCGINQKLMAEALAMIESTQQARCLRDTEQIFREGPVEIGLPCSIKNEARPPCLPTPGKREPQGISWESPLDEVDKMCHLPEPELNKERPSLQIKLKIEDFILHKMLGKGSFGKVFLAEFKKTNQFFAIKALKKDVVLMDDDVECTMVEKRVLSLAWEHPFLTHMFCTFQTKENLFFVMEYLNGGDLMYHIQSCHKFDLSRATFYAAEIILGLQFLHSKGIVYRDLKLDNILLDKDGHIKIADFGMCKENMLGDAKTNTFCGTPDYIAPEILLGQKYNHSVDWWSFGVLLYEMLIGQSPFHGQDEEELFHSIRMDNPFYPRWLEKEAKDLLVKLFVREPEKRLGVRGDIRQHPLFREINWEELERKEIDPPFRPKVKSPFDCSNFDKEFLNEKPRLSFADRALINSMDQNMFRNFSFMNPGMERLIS

Compound	IC50 (PKC theta)	IC50 (PKC epsilon)	IC50 (Human primary T cells; Homo sapiens, T-cell, 24 h)	IC50 (Human primary T cells; 24 hours)
CCN1C(=O)C(C)(C)Oc2cc(Nc3ncc(Br)c(NC4CC(C)(C)N(C)C(C)(C)C4)n3)ccc21 [II-128]	0.5 nM	202 nM	80 nM	
Cc1cc(Nc2ncc(F)c(NC3CC(C)(C)N(C)C(C)(C)C3)n2)ccc1-c1ccoc1 [Compound I-122]	60.7 nM	18.7 nM	295 nM	
CCCN1CCN(c2cc(Nc3ncc(F)c(NC4CC(C)(C)N(C)C(C)(C)C4)n3)ccc2C(F)(F)F)CC1 [Compound I-218]	6.52 nM	18.4 nM	216 nM	
CC1(C)CC(Nc2nc(Nc3cccc(-c4nn[nH]n4)c3)ncc2F)CC(C)(C)N1 [Compound I-471]		982 nM		
Cc1nnnn1-c1cccc(Nc2ncc(C#N)c(NC3CC(C)(C)NC(C)(C)C3)n2)c1 [Compound I-463]	3.6 nM	125 nM	590 nM	
CSc1nnnn1-c1cccc(Nc2ncc(C#N)c(NC3CC(C)(C)NC(C)(C)C3)n2)c1 [Compound I-465]	3.4 nM	115 nM	280 nM	
Cc1ccc(Nc2ncc(C#N)c(NC3CC(C)(C)N(C)C(C)(C)C3)n2)cc1-n1cnnn1 [Compound I-459]	0.3 nM	22 nM	50 nM	
CN1C(C)(C)CC(Nc2nc(Nc3ccc(F)c(C#N)c3)ncc2Cl)CC1(C)C [Compound I-166]	4.26 nM	198 nM	281 nM	
CCN1C(=O)C(C)(C)Oc2cc(Nc3ncc(C#N)c(NC4CC(C)(C)N(C)C(C)(C)C4)n3)ccc21 [II-45]	1.8 nM	179 nM	103 nM	
CN1C(C)(C)CC(Nc2nc(Nc3cccc(Br)c3)ncc2F)CC1(C)C [Compound I-104]	15.8 nM	62.8 nM	79.8 nM	
CN1C(C)(C)CC(Nc2nc(Nc3ccc(C(F)(F)F)c(N4CCN(S(C)(=O)=O)CC4)c3)ncc2F)CC1(C)C [Compound I-216]	5.99 nM	29 nM	174 nM	
CCCN1CCN(c2ccc(Nc3ncc(F)c(NC4CC(C)(C)N(C)C(C)(C)C4)n3)cc2C(F)(F)F)CC1 [Compound I-247]	19.9 nM	66.9 nM	131 nM	
COc1cc(Nc2ncc(F)c(NC3CC(C)(C)N(C)C(C)(C)C3)n2)cc(OC)c1 [Compound I-129]	4.19 nM	26.8 nM	214 nM	
CN1C(C)(C)CC(Nc2nc(Nc3ccc(-c4cccnc4)c(F)c3)ncc2F)CC1(C)C [Compound I-118]	18.2 nM	10.3 nM	237 nM	
Cc1ccc(Nc2ncc(F)c(NC3CC(C)(C)N(C)C(C)(C)C3)n2)cc1-c1cccnc1 [Compound I-197]	4.38 nM	60.3 nM		237 nM
COc1cc(Nc2ncc(Br)c(NC3CC(C)(C)N(C)C(C)(C)C3)n2)cc(OC)c1 [Compound I-422]	10.2 nM	165 nM	250 nM	
CN1C(C)(C)CC(Nc2nc(Nc3ccc4ncccc4c3)ncc2F)CC1(C)C [II-1]	9.66 nM	144 nM	612 nM	
COc1ccc(Nc2ncc(F)c(NC3CC(C)(C)N(C)C(C)(C)C3)n2)cc1OC(F)F [Compound I-239]	2.06 nM	54.6 nM	99.1 nM	
COc1ccc(Nc2ncc(C(F)(F)F)c(NC3CC(C)(C)N(C)C(C)(C)C3)n2)cc1OC(F)F [Compound I-350]	3.41 nM	589 nM	161 nM	
CN1C(C)(C)CC(Nc2nc(Nc3ccc(N4CCN(S(C)(=O)=O)CC4)c(Cl)c3)ncc2C#N)CC1(C)C [Compound I-102]	12.6 nM	218 nM	217 nM	
CN1C(C)(C)CC(Nc2nc(Nc3ccc(Cl)c(C#N)c3)ncc2Cl)CC1(C)C [Compound I-165]	2.56 nM	311 nM	292 nM	
Cc1ccc(Nc2ncc(F)c(NC3CC(C)(C)NC(C)(C)C3)n2)cc1-n1cnnn1 [Compound I-455]	1.3 nM	8 nM	70 nM	

Compound	IC50 (PKC theta)	IC50 (PKC epsilon)	IC50 (Human primary T cells; Homo sapiens, T-cell, 24 h)	IC50 (Human primary T cells; 24 hours)
CC1(C)CC(Nc2nc(Nc3cc(OCC(F)(F)F)cc(OCC(F)(F)F)c3)ncc2F)CC(C)(C)N1 [Compound I-375]	1.2 nM	200 nM	350 nM	
CN1C(C)(C)CC(Nc2nc(Nc3ccc(-c4ccoc4)c(F)c3)ncc2F)CC1(C)C [Compound I-119]	55.3 nM	27.8 nM	309 nM	
Cc1cc(Nc2ncc(F)c(NC3CC(C)(C)N(C)C(C)(C)C3)n2)ccc1-c1cccnc1 [Compound I-121]	23.7 nM	15.8 nM	268 nM	
CN1C(C)(C)CC(Nc2nc(Nc3ccc(CN4CCOCC4)c(C#N)c3)ncc2F)CC1(C)C [Compound I-450]	2.5 nM	9 nM		260 nM
COc1cc(Nc2ncc(C#N)c(NC3CC(C)(C)N(C)C(C)(C)C3)n2)cc(-n2nnnc2C)c1 [Compound I-365]	0.62 nM	7.34 nM	56.6 nM	
CN1C(C)(C)CC(Nc2nc(Nc3ccc4c(c3)oc(=O)n4CC3CC3)ncc2F)CC1(C)C [II-163]	6.1 nM	140 nM	280 nM	
CN1C(C)(C)CC(Nc2nc(Nc3ccc(F)c(C#N)c3)ncc2F)CC1(C)C [Compound I-140]	5.48 nM	158 nM	229 nM	
CCN1C(=O)C(F)(F)Oc2cc(Nc3ncc(F)c(NC4CC(C)(C)N(C)C(C)(C)C4)n3)cnc21 [II-27]	3.88 nM	65.8 nM	210 nM	
COc1cc(Nc2ncc(F)c(NC3CC(C)(C)N(C)C(C)(C)C3)n2)cc(-n2cnnn2)c1 [Compound I-342]	0.95 nM	1.57 nM	31.8 nM	
CN1CCN(c2ccc(Nc3ncc(F)c(NC4CC(C)(C)N(C)C(C)(C)C4)n3)cc2C#N)CC1 [Compound I-132]	1.82 nM	12.5 nM	64.9 nM	
CN1C(C)(C)CC(Nc2nc(Nc3cccc(-c4nn[nH]n4)c3)ncc2F)CC1(C)C [Compound I-470]	698 nM	941 nM		
CN1C(C)(C)CC(Nc2nc(Nc3ccc(-c4cnn(C)c4)c(C(F)(F)F)c3)ncc2F)CC1(C)C [Compound I-126]	12 nM		243 nM	
CC1CN(c2cc(Nc3ncc(F)c(NC4CC(C)(C)N(C)C(C)(C)C4)n3)ccc2Cl)CC(C)N1C (stereo not shown) [Compound I-250]	1040 nM		1500 nM	
CN1C(C)(C)CC(Nc2nc(Nc3ccc(-c4ccncc4)c(C#N)c3)ncc2F)CC1(C)C [Compound I-185]	7.65 nM		299 nM	
CN1CCC(Nc2nc(Nc3ccc(N4CCN(C)CC4)c(C(F)(F)F)c3)ncc2F)CC1 [III-3, 5-Fluoro-N2-[4-(4-methylpiperazino)-3-trifluoromethyl]phenyl-N4-(1-methylpiperidin-4-yl)-2,4-pyrimidinediamine]	18 nM		619 nM	
CN1CCN(c2ccc(Nc3ncc(C#N)c(NC4CC(C)(C)N(C)C(C)(C)C4)n3)cc2C(F)(F)F)CC1 [Compound I-94]	11.7 nM		443 nM	
COc1ccc(Nc2ncc(F)c(NC3CC(C)(C)N(C)C(C)(C)C3)n2)cc1Cl [Compound I-20]	5 nM		113 nM	
CN1C(C)(C)CC(Nc2nc(Nc3ccc(-c4cccnc4)c(C#N)c3)ncc2F)CC1(C)C [Compound I-186]	1.41 nM		92.4 nM	
CN1C(C)(C)CC(Nc2nc(Nc3cc(-c4cnn(C)c4)cc(C(F)(F)F)c3)ncc2F)CC1(C)C [Compound I-204]	82.9 nM		440 nM	
CN1C(C)(C)CC(Nc2nc(Nc3cc(Br)cc(C(F)(F)F)c3)ncc2F)CC1(C)C [Compound I-162]	68.6 nM		553 nM	
CN1CCN(c2ccc(Nc3ncc(F)c(NC4CC(C)(C)N(C)C(C)(C)C4)n3)cc2)CC1 [Compound I-1]	226 nM		3020 nM	
Cc1cc(Nc2ncc(F)c(NC3CC(C)(C)N(C)C(C)(C)C3)n2)ccc1-c1ccncc1 [Compound I-120]	29.5 nM		366 nM	
